Test results from publication PMC11729428, “New Potent Inhibitor of Transforming Growth Factor-Beta (TGFβ) Signaling that is Efficacious against Microsatellite Stable Colorectal Cancer Metastasis in Combination with Immune Checkpoint Therapy in Mice” (ACS Pharmacology & Translational Science, 2024).
Like-named read-outs stand apart in the source and are kept apart here.

What was measured:
[1] = test system: mouse tumor organoids (MTOs), established CRC liver metastases; experiment: Treatment of established CRC liver metastases, alone or with anti-PD1; type: in vivo, mice; settings: for Cure of established liver metastases as monotherapy: 0.1× doses: 80, 82 and 71 mg/kg BID for galunisertib, vactosertib and HYL001, anti-PD1 IP alone
Method: Encouraged by the increased potency observed in vitro and in the inhibition of liver metastatic initiation in vivo, we evaluated the ability of a relatively low HYL001 dose to help overcome established liver metastases when combined with immune checkpoint inhibition. In this experimental set up, a low number of MTO cells (25K) was injected in the portal vein (leaving the spleen unaltered), and liver metastases were allowed to develop and grow for 15 days before treatment with TGFβ inhibitors was initiated. This was done in combination with 3–4 intraperitoneal (IP) injections of immune-checkpoint inhibition therapy (anti-PD1 or isotype control antibody), spaced 2–3 days (Figure 6A,B).
Figure 6 HYL001 efficacy in dual immunotherapy against established CRC liver metastases. (A) Overview of experimental timing: dual treatment between days 14 and 28 after MTO injection (TGFβ inhibitor doses were all 0.1 ×); follow-up until humane end point. Below: numbers of countable liver lesions after sacrifice. Statistical comparisons to the vehicle + IgG2a control (above) or the vehicle+αPD1 condition (below) by two-tailed Mann–Whitney U test; ns: P ≥ 0.05; *P < 0.05; **P < 0.01; ***P < 0.001; ****P < 0.0001. (B) Kaplan–Meier curves indicate the survival (until humane end point) of mice under each treatment; P values were computed by the Mantel–Cox test (Log-rank).
For all tumor cell injections, C57BL/6J (or athymic BALB/C nu/nu) mice were purchased from Janvier at 6 weeks of age and injected at 7–8 weeks. Sex was matched with the origin of the tumor organoids, i.e., males for this study. Intrasplenic or portal vein injections, respectively, with 31G needles on 1 mL insulin syringes or 33G needles on a 50/100 μL Hamilton syringe, were used for liver colonization by the introduction of dissociated organoids (single cells) into the portal circulation. MTOs were cultured in standard six-well plates for 4 days and trypsinized as described before.[5] The resulting single cell suspension in HBSS (Lonza) was filtered through 100 and 40 μm mesh (to remove clumps of cells and aggregated debris). Intrasplenic injections were performed, as previously described,[5],[8],[9] using 2 × 10^5 cells in 70 μL HBSS. For portal vein injections, […] in 25 μL HBSS were injected directly into the portal vein.[5] Mice were euthanized at 3–5 weeks or at the humane end point (advanced metastasis-associated morbidity causing or threatening to cause severe suffering) to obtain survival-type data. Visible liver metastases were counted, and data were analyzed using GraphPad Prism software (v.7.03).
Gavage treatments were performed by technicians from the animal facility, not involved in this study (blinded). For checkpoint immunotherapy or dual treatments, we used rat anti-PD-1 (RMP1–14; Leinco P372) or rat IgG2a (Leinco I-1177) isotype-control antibodies.

[2] = Metabolic stability in human cryopreserved hepatocytes; type: in vitro ADME
Method: (§1) Metabolic stability in human primary hepatocytes
This assay was performed at Sai Life Sciences Lt. (Telangana, India) with human suspension hepatocytes […]
(§2) All other reactions were initiated by […]
analysis by LC-MS/MS, using MRM mode. […]
related to phase I and phase II metabolism, respectively.
The PARs were used for calculation of metabolic stability. The 0 min area ratio was considered as 100%. The […]
incubation volume / number of cells (in millions) x K e. To calculate into full body context, the values of 120 […]

[3] = Buffer stability (hepatocyte assay control); type: physicochemical
Method: Similarly, buffer was added to recovery and stability samples. Next,
Samples were monitored for
parent compound using multiple reaction monitoring (MRM) mode. […]
as §1
This assay was performed at Sai Life Sciences Lt. (Telangana, India) with human suspension hepatocytes
as §2

TGFβ pathway = experiment: Cellular TGFβ reporter (12xCAGA luciferase) assay in HEK293T cells; type: cell-based; settings: for IC50: Homo sapiens, HEK-293T, 5 ng/mL recombinant TGFβ, 12xCAGA luciferase reporter, read-out: cellular inhibition TGFβ pathway IC50
Method: We next tested the three inhibitors in a cellular assay, using a luciferase-based reporter assay[20] in HEK293T cells in the presence or absence of inhibitors (Table 1). Upon activation of the endogenous receptors by 5 ng/mL recombinant TGFβ, phosphorylation of the TGFBR1 triggers phosphorylation of the intracellular mediators SMAD2/3, and subsequent nuclear translocation with SMAD4. The SMAD2/3-SMAD4 complex binds to the TGFβ response element (12xCAGA) allowing the transcription of the Firefly luciferase reporter.
HEK293T cells were purchased from the ATCC and cultured in DMEM supplemented with L-glutamine and 10% fetal bovine serum (Life Technologies) at 37 °C and 5% CO2. The cells were seeded in 24-well plates and transfected with plasmids encoding 12xCAGA-Firefly_Luc and Tk-Renilla_Luc (75 and 10 ng per well, respectively) using polyethylenimine (Polysciences) as the transfection reagent. After 7 h, the medium was replaced with starvation medium (DMEM + 0.05% FBS). […] Bioluminescence was measured in a Berthold Lumat LB6507 luminometer (18 μL of reagents, 10 s measurements). Results were normalized to those of the Renilla transfection control. Inhibition–concentration curves were analyzed in Prism Graphpad Prism (v10.1.1) with a least-squares regression nonlinear fit.

[4] = test system: panel of 97 wild-type and disease-relevant mutant kinases; type: binding; settings: for Additional kinases showing >85% competitive binding: besides ALK5 and ALK4/ACVR1B
From the text: We also assessed the selectivity of these three inhibitors toward a panel of 97 wild-type and disease-relevant mutant kinases, distributed throughout various kinase families.
Figure 2 Selectivity of HYL001. […] TK: tyrosine kinases; TKL: tyrosine kinase-like kinases; STE: serine/threonine kinases; CK1: casein kinase 1 family; AGC: serine/threonine kinases, regulated by secondary messengers such as cyclic AMP (PKA) or lipids (PKC); CAMK: Ca^2+/calmodulin-dependent protein kinase family; and CMGC: primarily proline-directed serine/threonine kinases (CDKs, GSKs, MAP kinases, and CDK-like kinases).
5. Methods for In vitro characterizations of HYL001
Kinase affinity and selectivity
The affinity of the ALK5 inhibitor HYL001 was determined for the ALK kinase family using the […]
DNA-tagged kinases and immobilized assay ligands, using quantitative PCR —run by Eurofins/DiscoveryX (Birmingham AL, USA). Dissociation constants were calculated by measuring the amount of kinase captured on the solid support as a function of the test compound concentration. Kd values were obtained by an 11 -point […]
(BMPR1A), ALK4 (ACVR1B), ALK6 (BMPR1B), ACVR2B and TGFβ R2. In addition, this technology was […]
The strength of competitive binding, defined as the percentage of binding inhibition of kinases to assay ligan d, was visualized using the TREEspot software (DiscoverRx Corporation) and a selectivity score was calculated (the fraction of non -mutated kinases tested with competitive binding inhibition above threshold percentages 65 […]

[5] = human, hepatocytes, 0 h, pH 7.4
[6] = human, hepatocytes, 5 min, pH 7.4
[7] = human, hepatocytes, 0.25 h, pH 7.4
[8] = human, hepatocytes, 0.5 h, pH 7.4
[9] = human, hepatocytes, pH 7.4, Disappearance T1/2
[10] = 10 μM compound, 90 kinases tested

SMILES	Cure of established liver metastases as monotherapy [1]	Parent compound remaining [2, 5]	Parent compound remaining [2, 6]	Parent compound remaining [2, 7]	Parent compound remaining [2, 8]	CLint scaled ([2]; human, hepatocytes, pH 7.4)	half-life [2, 9]	Buffer Stability ([3]; 0 min, pH 7.4)	Buffer Stability ([3]; 60 min, pH 7.4)	IC50 (TGFβ pathway)	Number of kinase interactions (>65% competitive binding inhibition) [4, 10]	Additional kinases showing >85% competitive binding [4]	also measured
Cc1cccc(-c2nn3c(c2-c2ccnc4ccc(O)cc24)CCC3)n1 [HYL001, 4-(2-(6-Methylpyridin-2-yl)-5,6-dihydro-4H-pyrrolo[1,2-b]pyrazol-3-yl)quinolin-6-ol]	not efficacious	100%	67%	59%	56%	32.1 mL/min/kg	51.8 min	100%	117%	72 nM	13	ABL-1, CSNK1G2, and p38α	Tumor burden in numbers of liver nodules ([1]; dual therapy with anti-PD1): marked overall reduction; Mice cured at the end point (number) ([1]; dual therapy with anti-PD1, 71 mg/kg BID): 8/10; Mice cured at the end point ([1]; dual therapy with anti-PD1, 71 mg/kg BID, surviving 2.5 months after injection): up to 80%; Fold higher potency compared to galunisertib in TGFβ reporter assay (TGFβ pathway): ~2 fold; Number of kinase interactions (>65% competitive binding inhibition) ([4]; 0.3 μM compound, 22 kinases tested): 1; Number of kinase interactions (>65% competitive binding inhibition) ([4]; 3 μM compound, 22 kinases tested): 5; Selectivity score S(>65_10), fraction of wildtype kinases inhibited >65% ([4]; 10 μM compound): 0.144; Selectivity score S(>90_10), fraction of wildtype kinases inhibited >90% ([4]; 10 μM compound): 0.1; Selectivity score S(>65_10), fraction of wildtype kinases inhibited >65% ([4]; 10 μM compound, listed as HYL): 0.14
Cc1cccc(-c2nn3c(c2-c2ccnc4ccc(C(N)=O)cc24)CCC3)n1 [galunisertib]	not efficacious	100%	97%	92%	90%	10.4 mL/min/kg	> 60 min	100%	105%	157 nM	10	–	Parent compound remaining ([2]; human, hepatocytes, 1 h, pH 7.4): 76%; half-life ([2]; human, hepatocytes, pH 7.4, Assumed T1/2): 160 min
Cc1cccc(-c2[nH]c(CNc3ccccc3F)nc2-c2ccc3ncnn3c2)n1 [vactosertib, N -((4-([1,2,4]Triazolo[1,5-a]Pyridin-6-Yl)-5-(6-Methylpyridin-2-Yl)-1 H -Imidazole-2-Yl)Methyl)-2-Fluoroaniline]	not efficacious	–	–	–	–	–	–	–	–	10 nM	24	ERBB2, FGFR2/3, KIT, MEK1/2, PDGFRA/B, SRC, and VEGFR2	CLint scaled ([2]; hepatocytes (suspension, cryopreserved), pH 7.4, scaled using 120 M cells per g liver, liver weight 20 g/kg (human), read-out: Scaled in vivo Clint): 30.1 mL/min/kg; Parent compound remaining ([2]; human hepatocytes, incubation time 0 min): 100%; Parent compound remaining ([2]; human hepatocytes, incubation time 5 min): 60%; Parent compound remaining ([2]; human hepatocytes, incubation time 15 min): 59%; Parent compound remaining ([2]; human hepatocytes, incubation time 30 min): 52%; Parent compound remaining ([2]; human hepatocytes, incubation time 60 min): < 50%; Parent compound remaining ([2]; human hepatocytes, incubation time 60 min, listed as Vactosertib): 39%; half-life ([2]; human, hepatocytes (suspension, cryopreserved), pH 7.4, human hepatocytes, read-out: Disappearance T1/2): 55.3 min; Buffer Stability ([3]; 0 min): 100%; Buffer Stability ([3]; 60 min): 84%
